From ChEMBL document CHEMBL1136879, “Studies on novel 2-imidazolidinones and tetrahydropyrimidin-2(1H)-ones as potential TACE inhibitors: design, synthesis, molecular modeling, and preliminary biological evaluation” (Bioorg Med Chem, 2009)

target: Disintegrin and metalloproteinase domain-containing protein 17 (Homo sapiens) (UniProt P78536); test: Inhibition of TACE in human THP1 cell lysate at 0.1 uM/L by spectrofluorimetric ELISA relative to control; type: cell-free; settings: THP-1
Sequence (P78536 whole entry, the tested form may be a part): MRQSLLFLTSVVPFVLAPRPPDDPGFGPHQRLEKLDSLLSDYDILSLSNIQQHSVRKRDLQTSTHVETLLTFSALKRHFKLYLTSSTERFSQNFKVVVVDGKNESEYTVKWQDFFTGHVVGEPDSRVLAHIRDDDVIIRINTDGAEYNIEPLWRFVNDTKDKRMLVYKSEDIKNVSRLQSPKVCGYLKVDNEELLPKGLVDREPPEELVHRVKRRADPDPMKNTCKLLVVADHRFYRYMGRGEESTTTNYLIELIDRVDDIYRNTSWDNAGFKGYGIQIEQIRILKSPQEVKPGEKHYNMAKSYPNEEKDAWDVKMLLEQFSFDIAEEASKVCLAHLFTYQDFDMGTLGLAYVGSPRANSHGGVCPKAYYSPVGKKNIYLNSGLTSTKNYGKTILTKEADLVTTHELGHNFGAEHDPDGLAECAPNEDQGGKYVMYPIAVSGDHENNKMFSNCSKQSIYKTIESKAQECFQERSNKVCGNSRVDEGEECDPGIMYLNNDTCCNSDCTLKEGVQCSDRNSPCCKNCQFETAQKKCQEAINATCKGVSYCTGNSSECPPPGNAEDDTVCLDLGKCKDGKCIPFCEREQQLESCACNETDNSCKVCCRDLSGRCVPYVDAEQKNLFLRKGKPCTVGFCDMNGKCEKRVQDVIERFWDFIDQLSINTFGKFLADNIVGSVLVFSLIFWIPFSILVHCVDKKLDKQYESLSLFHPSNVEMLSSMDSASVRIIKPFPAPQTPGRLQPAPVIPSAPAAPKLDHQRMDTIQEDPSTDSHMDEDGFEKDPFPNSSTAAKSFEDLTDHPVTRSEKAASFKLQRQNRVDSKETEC

Row | inhibition [%] | SMILES
1 | 40 | CC(C(=O)NO)N1CCN(c2cccc(OCc3ccc([N+](=O)[O-])cc3)c2)C1=O (centres undefined)
2 | 37 | CC(C(=O)NO)N1CCCN(c2ccc(OCc3ccccn3)cc2)C1=O (centres undefined)
3 | 30 | CC(C(=O)O)N1CCN(c2ccc(OCc3ccc(-c4ccccc4)cc3)cc2)C1=O (centres undefined)
4 | 28 | CC(C(=O)NO)N1CCCN(c2ccc(OCc3ccccc3)cc2)C1=O (centres undefined)
5 | 42 | COc1ccc(CSc2ccc(N3CCN(C(C)C(=O)NO)C3=O)cc2)cc1 (centres undefined)
6 | 60 | CC(C)Cc1cc(COc2ccc(N3CCN(C(C)C(=O)NO)C3=O)cc2)c2ccccc2n1 (centres undefined)
7 | 30 | CC(C(=O)O)N1CCN(c2ccc(OCc3cc(-c4ccccc4)nc4ccccc34)cc2)C1=O (centres undefined)
8 | 34 | CCc1cc(COc2ccc(N3CCCN(C(C)C(=O)NO)C3=O)cc2)c2ccccc2n1 (centres undefined)
9 | 49 | CCc1cc(COc2ccc(N3CCN(C(C)C(=O)O)C3=O)cc2)c2ccccc2n1 (centres undefined)
10 | 38 | COc1ccc(COc2ccc(N3CCN(C(C)C(=O)NO)C3=O)cc2)cc1 (centres undefined)
11 | 35 | CC(C(=O)O)N1CCCN(c2ccc(OCc3ccccn3)cc2)C1=O (centres undefined)
12 | 20 | CC(C)Cc1cc(COc2ccc(N3CCCN(C(C)C(=O)O)C3=O)cc2)c2ccccc2n1 (centres undefined)
13 | 50 | CC(C(=O)NO)N1CCN(c2ccc(OCc3ccccn3)cc2)C1=O (centres undefined)
14 | 40 | COc1ccc(CSc2ccc(N3CCN(C(C)C(=O)O)C3=O)cc2)cc1 (centres undefined)
15 | 28 | CC(C(=O)O)N1CCN(c2ccc(OCc3ccccn3)cc2)C1=O (centres undefined)
16 | 40 | CC(C(=O)NO)N1CCCN(c2ccc(OCc3cccc4ccccc34)cc2)C1=O (centres undefined)
17 | 28 | CC(C(=O)O)N1CCCN(c2ccc(OCc3ccc(-c4ccccc4)cc3)cc2)C1=O (centres undefined)
18 | 18 | COc1ccc(COc2ccc(N3CCCN(C(C)C(=O)NO)C3=O)cc2)cc1 (centres undefined)
19 | 28 | CC(C)C[C@H](CC(=O)NO)C(=O)N[C@@H](C)C(=O)N(c1cccc2ccccc12)[C@@H](C)C(=O)NCCN
20 | 62 | CCc1cc(COc2ccc(N3CCN(C(C)C(=O)NO)C3=O)cc2)c2ccccc2n1 (centres undefined)
21 | 39 | CC(C(=O)NO)N1CCN(c2cccc(OCc3ccccc3)c2)C1=O (centres undefined)
22 | 31 | CC(C(=O)O)N1CCCN(c2ccc(OCc3cc(-c4ccccc4)nc4ccccc34)cc2)C1=O (centres undefined)
23 | 36 | CC(C(=O)NO)N1CCN(c2ccc(OCc3cccc4ccccc34)cc2)C1=O (centres undefined)
24 | 47 | CC(C)Cc1cc(COc2ccc(N3CCN(C(C)C(=O)O)C3=O)cc2)c2ccccc2n1 (centres undefined)
